Measurements: patent US6440980B1, “Synergistic inhibition of viral replication by long-chain hydrocarbons and nucleoside analogs” (Avanir Pharmaceuticals, priority 1996, dated 2002)
Like-named read-outs stand apart in the source and are kept apart here.

Assays:
HSV-1 = HSV-1 PFU production in Vero cell cultures; format: cell-based, HSV-1 (MacIntyre strain)
vaccinia virus = test: microbe, parasite or virus in culture; format: cell-based, vaccinia virus (WR strain); details: for EC50: read-out: EC50 for inhibition of vaccinia virus replication
Vero cells [1] = test: Cytotoxicity to Vero cells (monolayer integrity, trypan blue exclusion); details: surfactant suspension
HSV-2 = test: Inhibition of HSV-2 plaque formation in Vero cells; details: for Percent Inhibition of Plaque Formation: PLURONIC F-68 suspension added 12 hr before HSV-2 (erucyl alcohol with the virus), Toxic = monolayer destroyed within 24 hr; for inhibition of viral plaque production at concentrations that were not cytotoxic: 0.2 μM stearyl alcohol, 2 μM arachidyl alcohol; for 50% Inhibition Concentration (mM): alcohol suspension in PLURONIC F-68, Vero cells incubated 12 hr before HSV-2, linear regression, Toxic = monolayer destroyed by end of 12-hour incubation with at least 1.5 mM
B cell hybridoma (MBI-9) = test: 3H-thymidine incorporation into DNA of B cell hybridoma; format: cell-based, murine; details: Mus musculus, read-out: IC50 (3H-thymidine incorporation)
Vero cells [2] = details: African green monkey
all cell lines tested = test: Cytotoxicity in mammalian cell cultures; details: for IC50: read-out: IC50 (cellular toxicity by chain length)
Source text: Three assays were used to quantitate the effects of aliphatic alcohols on cell survival and proliferation: 1) counting cells with a hemocytometer and determining the number of cells that exclude trypan blue; 2) measuring the incorporation of ^3H-thymidine into cellular DNA by adding ^3H-thymidine (from New England Nuclear) to the culture medium, lysing the cells with water and harvesting the DNA onto filter paper; and 3) measuring total cellular protein using a sulforhodamine assay adapted for use in 96-well microtiter plates (Skehan et al., J. Natl. Cancer Inst. […] All of these methods are well known cell viability and cytotoxicity assays.

influenza virus = format: in vivo, human; details: for highest recorded body temperature (mean): erucyl alcohol 0.15 mM five times per day, erucamide 1.5 mM three times per day, untreated 38.9; for mean duration of flu symptoms: untreated 3 days
[3] = system: human foreskin fibroblasts; test: Cell proliferation (cytostasis), sulforhodamine staining; format: cell-based; details: 1,000 cells/well, 96-hours incubation
Description: The effects of n-docosanol and n-docosane suspensions on cell proliferation (cytostasis) were quantitated using the sulforhodamine staining assay on cultures of human foreskin fibroblasts incubated in 96-well plates.
Foreskin fibroblasts were plated with or without aliphatic alcohol suspensions or control surfactant suspensions at 1,000 cells/well (FIG. 6A and FIG. 7) or at 30,000 cells/well (FIG. 6B) in 96 well plates. After incubation for 72 hr or 96 hr at 37° C., cells were precipitated with trichloroacetic acid, stained with sulforhodamine and quantitated by measuring the OD540 in a microtiter plate reader.

[4] = 15 mM n-docosanol, 500 PFU/culture, three days, read-out: EC90 for inhibition of HSV-1 PFU production in the presence of n-docosanol
[5] = Human alphaherpesvirus 2, Vero, read-out: Percent Inhibition of Plaque Formation
[6] = Human alphaherpesvirus 1, Vero, 72 h, read-out: EC90 for inhibition of HSV-1 PFU production, drug used alone
[7] = Orthopoxvirus vaccinia, Vero, 72 h
[8] = Human alphaherpesvirus 2, Vero, read-out: 50% Inhibition Concentration (mM)

O=C(O)P(=O)(O)O [PFA, phosphonoformic acid]
EC90 (HSV-1; [4]): 17 µM | EC90 (HSV-1; Human alphaherpesvirus 1, Vero, 72 h, control cultures without n-docosanol, 500 PFU/culture, three days, read-out: EC90 for inhibition of HSV-1 PFU production, drug used alone): ~18 µM | interaction of n-docosanol with the antiviral activity of PFA against vaccinia virus (vaccinia virus; presence or absence of n-docosanol or PLURONIC F-68): no drug-drug interaction

CCCCCCCCCCCCCCCCCCCCCC(=O)O [n-docosanoic acid]
concentrations tolerable to the cells (Vero cells [1]): ≤ 2000 µM | Percent Inhibition of Plaque Formation (HSV-2; 4 mM): Toxic | Percent Inhibition of Plaque Formation (HSV-2; 8 mM): Toxic | Percent Inhibition of Plaque Formation (HSV-2; 15 mM): Toxic^† | inhibition at 500 µM (HSV-2; [5]): 26% | inhibition at 1000 µM (HSV-2; [5]): 16% | inhibition at 2000 µM (HSV-2; [5]): 30%

CCCCCCCCCCCCCCCCCCCCO [arachidyl alcohol]
IC50 (B cell hybridoma (MBI-9); 48 hr incubation): ~1700 µM | concentration that was not cytotoxic (Vero cells [2]): 2 µM | IC50 (all cell lines tested): 1500 µM | cytotoxicity of the suspensions (in words) (all cell lines tested; surfactant suspensions): extremely cytotoxic | inhibition of viral plaque production at concentrations that were not cytotoxic (HSV-2): no inhibition of viral plaque production | 50% Inhibition Concentration (mM) (HSV-2): Toxic**

CCCCCCCC/C=C\CCCCCCCCCCCCO [erucyl alcohol, cis-13-docosen-1-ol]
concentrations tolerable to the cells (Vero cells [2]): ≤ 1000 µM | concentrations toxic to Vero cells (cells rounded and detached) (Vero cells [2]): 2000 to 15000 µM | highest recorded body temperature (mean) (influenza virus): 37.8 °C | mean duration of flu symptoms (influenza virus): 1.7 days | frequency of fever per flu episode (influenza virus; in vivo): one to three | EC50 lower than the concentration required for n-docosanol (HSV-2; 0.15 mM vs 9 mM): 60 fold | Percent Inhibition of Plaque Formation (HSV-2; 2 mM): Toxic | Percent Inhibition of Plaque Formation (HSV-2; 4 mM): Toxic | Percent Inhibition of Plaque Formation (HSV-2; 8 mM): Toxic | Percent Inhibition of Plaque Formation (HSV-2; 15 mM): Toxic | direct virucidal effect (HSV-2; HSV-2 incubated with the suspension for 2 hours, subsequent plaque formation on Vero cells): did not inactivate the virus | inhibition at 250 µM (HSV-2; [5]): 70% | inhibition at 500 µM (HSV-2; [5]): 91% | inhibition at 1000 µM (HSV-2; [5]): 93% | EC50 (HSV-2; Human alphaherpesvirus 2, Vero, read-out: effective concentration required to inhibit plaque formation by 50% (EC50), surfactant suspension, Example 5): 0.15 mM

Nc1ncnc2c1ncn2[C@@H]1O[C@H](CO)[C@@H](O)[C@@H]1O [Ara-A, Adenine 9-β-D-arabinofuranoside]
reduction of EC90 by n-docosanol (HSV-1; 15 mM n-docosanol): 16 fold | EC90 (HSV-1; [4]): ~1.4 µM | EC90 (HSV-1; control cultures without n-docosanol, 500 PFU/culture, three days, read-out: EC90 for inhibition of HSV-1 PFU production, drug used alone): ~22 µM | EC50 (vaccinia virus; control cultures (medium or PLURONIC F-68), 3 days post-infection): ~20 µM

CCCCCCCC/C=C\CCCCCCCCCCCC(N)=O [erucamide, cis-13-docosenoamide]
concentrations toxic to Vero cells (cells rounded and detached) (Vero cells [2]): ≥ 3000 µM | concentrations tolerable to the cells (Vero cells [1]): ≤ 1700 µM | highest recorded body temperature (mean) (influenza virus): about 37 °C | mean duration of flu symptoms (influenza virus): two | inhibition at 30 µM (HSV-2; [5]): 34% | inhibition at 590 µM (HSV-2; [5]): 42% | inhibition at 890 µM (HSV-2; [5]): 44% | inhibition at 1200 µM (HSV-2; [5]): 58% | inhibition at 1500 µM (HSV-2; [5]): 68% | inhibition at 1700 µM (HSV-2; [5]): 78%

O=c1[nH]c(=O)n([C@H]2C[C@H](O)[C@@H](CO)O2)cc1C(F)(F)F [Trifluridine, trifluridine deoxyriboside]
reduction of EC90 by n-docosanol (HSV-1; 15 mM n-docosanol): 5 fold | EC90 (HSV-1; [6]): ~6.8 µM | EC90 (HSV-1; read-out: EC90 for inhibition of HSV-1 PFU production in the presence of n-docosanol, 15 mM n-docosanol, 500 PFU/culture, three days): ~1.35 µM | EC50 (vaccinia virus; [7]): ~2 µM

CCCCCCCCCCCCCCCCCCCCCC [n-docosane]
antiproliferation effects compared to the surfactant control [3]: minimal antiproliferation effects | inhibition at 1000 µM (HSV-2; [5]): 28% | inhibition at 2000 µM (HSV-2; [5]): 31% | inhibition at 4000 µM (HSV-2; [5]): 42% | inhibition at 8000 µM (HSV-2; [5]): 55% | inhibition at 15000 µM (HSV-2; [5]): 58%

CCCCCCCCCCCCCCCCCCCCCO [heneicosanol]
IC50 (all cell lines tested): > 15000 µM | cytotoxicity of the suspensions (in words) (all cell lines tested; surfactant suspensions): same minimal level of cytotoxicity | EC50 (HSV-2; [8]): 16 mM

CCCCCCCCCCCCCCCCCCO [stearyl alcohol]
IC50 (B cell hybridoma (MBI-9)): < 35 µM | IC50 (all cell lines tested): < 35 µM | inhibition of viral plaque production at concentrations that were not cytotoxic (HSV-2): no inhibition of viral plaque production | 50% Inhibition Concentration (mM) (HSV-2): Toxic**

NC(=O)c1ncn([C@@H]2O[C@H](CO)[C@@H](O)[C@H]2O)n1 [ribavirin]
reduction of EC90 by n-docosanol (HSV-1; 15 mM n-docosanol): 75 fold | EC90 (HSV-1; [4]): ~0.33 µM | EC90 (HSV-1; [6]): ~24.6 µM | EC50 (vaccinia virus; [7]): ~25 µM

CCCCCCCCCCCCCCCCCCCCCCCCCCCCO [n-octacosanol]
cytotoxicity of the suspensions (in words) (all cell lines tested): same minimal level of cytotoxicity | EC50 (HSV-2; [8]): 10.5 mM

CCCCCCCCCCCCCCCCCCCCCCCCO [lignoceryl alcohol, n-tetracosanol]
cytotoxicity of the suspensions (in words) (all cell lines tested; surfactant suspensions): same minimal level of cytotoxicity | EC50 (HSV-2; [8]): 14.1 mM
